This is an account of results in patent US6218378A, “Anti-tumor agents comprising pyridyl-substituted metal-diphosphine complex” (priority 1994, dated 2001).

Series [1] has as its system CI-80-13S vs JAM; HeLa-S1a vs HeLa. The series can be described thus: relative cytotoxic potency in cisplatin-resistant and non-resistant cells (Table 1). The series is classed as cell-based, human. The following applies: CI80-13-S vs JAM; HeLaS1a vs HeLa. From the text: The origins of the human melanoma cell line MM96 has been described in Whitehead et al., 1973, Pigment Cell 1 383-389. The cell line JAM is described in Ward et al., 1987, Cancer Res. 47 2662-2667. The origin of the ovarian tumour line CI-80-13S has been described in Bertoncello et al., 1985, Aust. J. Exp. Biol. Med. Sci. 63 241-243. The origin of the cervical carcinoma cell line HeLa has been described in Maynard et al., 1986, Cancer Res. 46 5009-5093. The subclone HeLa-S1a was derived by stably transfecting HeLa with PAI-2 cDNA described in Schleuning et al., 1987, Mol. Cell. Biol. 7 4564-4567 in the sense orientation under the control of the cyto-megalovirus (CMV) promoter. The stably infected subclone was isolated following G418 selection and expression of the PAI-2 transgene characterised by immunoblot analysis and quantitated by ELISA. […]
Cells were seeded in microtitre plates (lowest number for fastest growing cells: 1000 HeLa, 2000 MM96, […] CI-80-13S cells per 6 mm well in 100 μl), normally but not necessarily allowed to attach overnight, then 5 dilutions of the drug were added to duplicate wells. […] Cell growth/morphology was scored at each dose visually (inverted microscope). […] Radioactivity was determined in an LKB Beta Plate counter and the results plotted as log % control cpm versus dose. […]

In series [2] the test system is HeLa-S1a. The series can be described thus: cell survival after drug treatment ([methyl-3H]-thymidine). Format: cell-based, human. The following applies: HeLa-S1a; mean ± SD or individual values when n<3; 5-7 days. From the text:
(§1) In FIGS. 1-4 and Table 1, reference is made to the cell lines HeLa, HeLa-S1a, JAM, CI-80-13S and MM96.
(§2) The origins of the human melanoma cell line MM96 has been described in Whitehead et al., 1973, Pigment Cell 1 383-389. The cell line JAM is described in Ward et al., 1987, Cancer Res. 47 2662-2667. The origin of the ovarian tumour line CI-80-13S has been described in Bertoncello et al., 1985, Aust. J. Exp. Biol. Med. Sci. 63 241-243. The origin of the cervical carcinoma cell line HeLa has been described in Maynard et al., 1986, Cancer Res. 46 5009-5093. The subclone HeLa-S1a was derived by stably transfecting HeLa with PAI-2 cDNA described in Schleuning et al., 1987, Mol. Cell. Biol. 7 4564-4567 in the sense orientation under the control of the cyto-megalovirus (CMV) promoter. The stably infected subclone was isolated following G418 selection and expression of the PAI-2 transgene characterised by immunoblot analysis and quantitated by ELISA. All of these cell lines have been used before for carrying out cell survival assays referred to in FIGS. 1-4. Cells were cultured at 37° in 5% CO2 /air in Roswell Park Memorial Institute medium 1640 containing 5% foetal calf serum, 100 μg/ml streptomycin, 100 IU/ml penicillin, 1 mM pyruvate, 50 μM nicotinamide and 3 mM HEPES.
(§3) Cells were seeded in microtitre plates (lowest number for fastest growing cells: 1000 HeLa, 2000 MM96, […] CI-80-13S cells per 6 mm well in 100 μl), normally but not necessarily allowed to attach overnight, then 5 dilutions of the drug were added to duplicate wells. After an overnight incubation to equilibrate the pH, the lids were quickly taped around the edge to prevent evaporation. The plates were incubated for 5-7 days, until the controls were nearly confluent. Cell growth/morphology was scored at each dose visually (inverted microscope). The medium was then replaced by 50 μl fresh medium containing 2 u/Ci/ml [methyl-3H]-thymidine (5 Ci/mmol; Radiochemical Centre, Amersham, Bucks., U.K.) and incubated for 2-4 hr. The cells were washed with PBS (0.1 M NaCl, 50 mM phosphate, pH 7.2), detached with 100 μl of PBS containing 0.2 mg/ml trypsin and 10 mM EDTA, and washed onto a glass fibre GF/a filter mat with water using a cell harvester. Later, wells were checked under the microscope to ensure complete detachment and washout. Radioactivity was determined in an LKB Beta Plate counter and the results plotted as log % control cpm versus dose. The ID50 (dose required to give 50% survival) was interpolated from this survival curve.

Series [3] deals with JAM. The series is described as above. The series is classed as cell-based, human. The following applies: mean ± SD or individual values when n<3, 5-7 days.
Text: as §1, §2, §3

For series [4], the system named is HeLa. The description is as above. The following applies: HeLa; mean ± SD or individual values when n<3; 5-7 days. The series is classed as cell-based, human.
Text: as §1, §2, §3

Series [5] relates to CI-80-13S. The description is as above. The series is classed as cell-based, human. The following applies: CI-80-13S; mean ± SD or individual values when n<3; 5-7 days.
Text: as §1, §2, §3

In another series the test system is MM96. Described as above. The series is classed as cell-based, human. The following applies: MM96L; mean ± SD or individual values when n<3; 5-7 days.
Text: as §1, §2, §3

For series [6], the system named is 41M-cisR. The series can be described thus: cytotoxicity assay, sulforhodamine B. Format: cell-based, human. The following applies: 96 hrs, mean ± SD or individual values when n<3. The procedure: (§4) In Table 2, reference is made to cell lines 41M, 41M-cisR, SKOV-3, CH1 and CH1-cisR.
(§5) J. Cancer 69 1-7. The characteristics of the cell line pairs CH1/CH1 cisR, 41M/41McisR and 41M/SKOV3 are described in Table 3.
(§6) The cytotoxicity assay used sulforhodamine B which stains the basic amino acids. Cells (5000 or 2500 for SKOV-3) were seeded into 96 well microtitre plates (Linbro, Flow Laboratories Inc., USA) in 0.1 ml of medium. After an overnight incubation, the metal phosphine compounds were dissolved in 0.9% NaCl or ethanol and diluted with medium, were added at concentrations ranging from 0.005 to 50 μM to quadruplicate wells. After 96 hrs incubation, the medium was removed and cells were fixed in 0.2 ml of cold 10% (w/v) trichloroacetic acid (May & Baker Ltd., Dagenham, England) for 30 mins at 4° C. The plates were washed five times with tap water. Then 0.1 ml of 0.4% (w/v) sulforhodamine B (Sigma Chemical Co., St. Louis, USA) dissolved in 1% acetic acid (Ajax Chemicals, Australia) was added to the wells and left to stand at room temperature for 15 mins. The plates were then washed five times with 1% acetic acid and left to dry overnight. The next morning, 0.1 ml of 10 mM Tris buffer (Sigma Chemical Co., St. Louis, USA) was then added to each plate to solubilise the dye. Absorbance was read at a wavelength of 570 nm using a 96 well plate reader Dynatech MR 5000 plate reader. Absorbance of treatment cells was expressed as a percentage of positive (drug-free) controls. The results were plotted as percentage growth versus drug concentration.

In series [7] the test system is 41M. Put plainly: cytotoxicity assay, sulforhodamine B. The following applies: 96 hrs, mean ± SD or individual values when n<3. Format: cell-based, human. Here is the method: as §4, §5, §6
In series [8] the test system is SKOV-3. The series can be described thus: cytotoxicity assay, sulforhodamine B. Format: cell-based, human. The following applies: mean ± SD or individual values when n<3. Here is the method:
as §4, §5, §6

In series [9] the test system is 41M, 41M-cisR, SKOV-3, CH1, CH1-cisR. The series can be described thus: growth inhibition of cisplatin-sensitive and -resistant ovarian cancer cell lines (Table 2, FIG. 5). The series is classed as cell-based, human.
Text: The sensitive CH1 cell line was established from a patient with drug-sensitive disease and its resistant variant (CH1-cisR) was generated by prolonged in vitro exposure to cisplatin during which it acquired more efficient DNA repair as described in Kelland et al., 1992, Cancer Research 52 3857-3864. The sensitive 41M cell line was also established from a patient with a sensitive tumor and its resistant variant (41M-cisR) was generated in the same way but acquired decreased uptake across the cell membrane (Kelland et al., 1992, supra). The intrinsically-resistant SKOV-3 ovarian carcinoma cell line has high glutathione levels as described in Mistry et al., 1991, Brit. J. Cancer 64 215-220 and reduced levels of bi-functional cisplatin-DNA lesions as described in McKeage et al., 1994, Brit. J. Cancer 69 1-7. The characteristics of the cell line pairs CH1/CH1 cisR, 41M/41McisR and 41M/SKOV3 are described in Table 3.
as §6, with “concentration. The drug concentration resulting in a 50% growth inhibition was termed the IC50. The passage numbers used for the cytotoxicity assay from each cell line were, CH1 passages 50-58, CH1 cis-R passages 77-83, 41M passages 50-63, 41M cisR 81-92 and SKOV-3 passages 106-128.” for “concentration.”

For series [10], the system named is four human tumour cell lines (MM96, HeLa, CI-80-13S, HeLa-S1a). Put plainly: cytotoxicity against four human tumour cell lines in vitro (FIGS. 3 and 4). The series is classed as cell-based.
Text: as §2, §3
We have tested the following compounds of formula (III) against the four human tumour cell lines described above, i.e.: […]

Series [11] relates to CH1. The following applies: data from Kelland et al., 1992; cited from earlier work.
In series [12] the test system is 41M. The following applies: data from Kelland et al., 1992; cited from earlier work.
For series [13], the system named is CI-80-13S. The following applies: ID37 data from Ying Dong et al. submitted for publication; cited from earlier work.
In series [14] the test system is HeLa. The following applies: ID37 data from Ying Dong et al. submitted for publication; cited from earlier work.
Series [15] concerns CH1-cisR. The following applies: data from Kelland et al., 1992; cited from earlier work.
Series [16] concerns HeLa-S1a. The following applies: ID37 data from Ying Dong et al. submitted for publication; cited from earlier work.
The subject of the next series is Rhodamine 123 uptake. The following applies: cells treated with cisplatin; cited from earlier work.
Series [17] has as its system JAM. The following applies: ID37 data from Ying Dong et al. submitted for publication; cited from earlier work.
For series [18], the system named is SKOV-3. The following applies: data from McKeage et al., 1994; cited from earlier work.
Series [19] relates to 41M-cisR. The following applies: data from Kelland et al., 1992; cited from earlier work.
The conditions of series [20]: from Chen in Cancer Cells 1; cited from earlier work.
In series [21] the test system is CH1. The series can be described thus: cytotoxicity assay, sulforhodamine B. The series is classed as cell-based, human. The following applies: Homo sapiens, 96 hrs, mean ± SD or individual values when n<3. The procedure:
as §4, §5, §6

The subject of series [22] is CH1-cisR. Put plainly: cytotoxicity assay, sulforhodamine B. The series is classed as cell-based, human. The following applies: Homo sapiens, CH1cisR, 96 hrs, mean ± SD or individual values when n<3. Here is the method: as §4, §5, §6
Series [23] deals with mitochondria of carcinoma derived cells. The following applies: carcinoma derived versus untransformed cells; cited from earlier work.

Each structure is given as a SMILES string. Values joined by “and” are separate entries in the source; they are usually repeats but may differ in a detail not shown here. Equal values may be shown once. Read-outs that look alike come from different tables or passages of the source.

As to `[Cl-].[Cl-].c1ccc([P+]2(c3ccccn3)CC[P+](c3ccccn3)(c3ccccn3)[Au-3]23[P+](c2ccccn2)(c2ccccn2)CC[P+](c2ccccn2)(c2ccccn2)[Au-3]2([P+](c4ccccn4)(c4ccccn4)CC[P+]2(c2ccccn2)c2ccccn2)[P+](c2ccccn2)(c2ccccn2)CC[P+]3(c2ccccn2)c2ccccn2)nc1` [[Au2 (d2pype)4]Cl2], the “sensitivity of cisplatin-resistant cell lines versus non-resistant cells” value in [1] is on record as “more sensitive”. The IC50 was 60 nM with HeLa-S1a [2]; 100 nM and 390 nM in the series on JAM [3]; 240 ± 100 nM with HeLa [4]; 60 ± 30 nM in the series with CI-80-13S [5]; 90 nM in the series with MM96; 600 nM with 41M-cisR [6]. The IC50 was found to be 700 nM in the series with 41M [7] and 1100 nM in the series on SKOV-3 [8] (96 hrs). The “selectivity and cytotoxicity in ovarian cancer cell-lines (FIG. 5)” value in series [9] was “cytotoxic to the 41M pair and the resistant SKOV-3”. The “cytotoxicity (FIGS. 3 and 4)” value in series [10] (all four cell lines) is on record as “cytotoxic to all four cell lines”. Besides, the “selectivity against the cisplatin-resistant lines” value in series [10] (compared with formula (I) or (V), R=4-pyridyl and 3-pyridyl) is “do not show the same selectivity”.
In the case of `N.N.[Cl][Pt][Cl]` [Cisplatin], the concentration for half-maximal inhibition (IC50) is 110 ± 10 nM with CH1 [11]; 260 ± 100 nM in the series on 41M [12]; 710 ± 200 nM in the series on CH1-cisR [15]; 2100 nM in the series on SKOV-3 [18]; 1200 ± 400 nM in the series with 41M-cisR [19]. In addition, the “ID37” value with CI-80-13S [13] was 4.17 ± 0.5 µM; with HeLa [14] it was 0.29 ± 0.04 µM; with HeLa-S1a [16] it was 0.62 ± 0.08 µM; in the series on JAM [17], 0.83 ± 0.3 µM. Also, the “Rhodamine 123 uptake” value in the series with Rhodamine 123 uptake was “Rhodamine 123 uptake increases”.
For `CCN(CC)c1ccc2c(-c3ccccc3C(=O)O)c3ccc(=[N+](CC)CC)cc-3oc2c1` [Rhodamine, reference compound], the “ID37” value was 0.105 ± 0.026 µM with CI-80-13S [13], 2.73 ± 0.28 µM in the series with HeLa [14], 0.58 ± 0.08 µM in the series on HeLa-S1a [16] and 0.90 ± 0.03 µM in the series on JAM [17]. For the same compound, in [20], the partition co-efficient was 0.34. The IC50 amounted to 900 nM with CH1 [21]; 500 nM in the series with CH1-cisR [22]; 1000 nM with 41M-cisR [6] (Homo sapiens, 41McisR); 3000 nM in the series on 41M [7] (Homo sapiens); 1000 nM with SKOV-3 [8] (Homo sapiens, SK-OV-3, 96 hrs). In addition, the “sensitivity of cisplatin resistant cells versus non-resistant cells” value in [9] (41M/41M-cisR and CH1/CH1-cisR pairs) is reported as “the cisplatin resistant cells are more sensitive to Rhodamine than the nonresistant cells”. The accumulation in mitochondria result in series [23] is recorded as “accumulate in the mitochondria of most carcinoma derived cells more rapidly than in most untransformed cells”.

As a reminder, the IC50 is the concentration that inhibits the measured activity by half.
